Data: US4443619A, “Chlorocitric acids” (Hoffmann-La Roche Inc., priority 1981, dated 1984)

Columns and labels:
[1] = Body weight and food intake in meal-fed rats, 16 day study (Example 19); type: in vivo, Charles River female rats; conditions: 16 days
Description: Two month old Charles River female rats (Charles River Breeding Laboratories, Wilmington, Mass.) were individually housed in wire-bottomedcages in a temperature-regulated (22° C.) light-controlled room (12 hr light, 6 a.m. to 6 p.m. and 12 hr dark, 6 p.m. to 6 a.m.). […] (1) control, (2) (-)-threo-chlorocitric acid (1.0 mmoles/kg, 227 mg/kg) administered by oral intubation 30 min before the 3 hr meal, and (3) (-)-threo-chlorocitric acid (1.1 mmoles/kg, 250 mg/kg) as a dietary admixture for the 3 hr meal. Treatment was continued for 16 days. The amount of body weight gained and food consumed during the study were determined.

[2] = Food consumption of three diets in meal-fed rats (Example 15); type: in vivo, Charles River female rats; conditions: mean ± S.E.
Description: Charles River female rats (Charles River Breeding Laboratories, Wilmington, Mass.), weighing 170 to 200 g, were individually housed in wire-bottomed cages in a temperature-regulated (22° C.) light-controlled room (12 hr light, 6 a.m. to 6 p.m. and 12 hr dark, 6 p.m. to 6 a.m.). Animals were fasted 48 hr, then meal-fed the indicated diets from 8 to 11 a.m. Following 5 to 12 days alimentation on the meal-feeding regimen, rats were dosed with the appropriate compounds orally by intubation 1/2 hr before the 3 hr meal. Food cups were weighed immediately after the 1st, 2nd and 3rd hr of the meal. The control groups consisted of 8 to 10 rats and the experimental group considered of 5 to 6 rats.

[3] = Total body fat in meal-fed rats, oral administration, 17 day study (Example 22); type: in vivo, Charles River female rats; conditions: 17 days
Description: Two month old Charles River female rats (Charles River Breeding Laboratories, Wilmington, Mass.) were individually housed in wire-bottomedcages in a temperature-regulated (22° C.) light-controlled room (12 hr light, 6 a.m. to 6 p.m. and 12 hr dark, 6 p.m. to 6 a.m.). […] On the 8th day, the animals were administered water or (-)-threo-chlorocitric acid at the indicated concentration by oral intubation 30 min before the 3 hr meal. Treatment was continued for 17 days. Food cups were weighed immediately after the meal. After 17 days of treatment, rats were killed by decapitation and blood was removed. […] C. Sullivan, et al, Am. J. Clinical Nutrition, 30 767 (1977). […] Total carcass and lipid data are expressed in grams and percentages of carcass weight.

[4] = system: fatty acid and cholesterol syntheses; experiment: Inhibition of fatty acid, lipid and cholesterol synthesis (summary statements)
[5] = Body weight gain in 8 hour meal-fed Zucker rats (Example 18); type: in vivo, lean (Fa/-) and obese (fa/fa); conditions: 0.66 mmoles/kg b.i.d. oral, 6 days, mean ± S.E.
Description: Lean (Fa/-) Zucker rats and obese (fa/fa) Zucker rats of both sexes were individually housed in wire-bottomed cages in a temperature-regulated (22° C.) light-controlled room (12 hr light, 6 a.m. to 6 p.m. and 12 hr dark, 6 p.m. to 6 a.m.). The animals were fed a high carbohydrate (70% glucose) diet ad libitum for 13 days, dosed with the indicated compounds by oral intubation for 9 days and allowed to recover for 3 days. The animals were then meal fed from 8 a.m. to 4 p.m. for a period of 5 days, following which they were continued on the same meal schedule for an additional 6 days. During the 6-day period, the animals were administered the indicated compounds by oral intubation at 8 a.m. and 12 p.m. Body weight gain during the 6-day period was determined.

[6] = Food intake in dogs, pyramiding oral doses (Examples 26 and 27); type: in vivo, beagle dogs
Description: Twelve beagle dogs of both sexes weighing 7.6-12.2 kg were used for this test. The test compounds were contained in gelatin capsules for oral administration to two dogs of each sex. The animals were weighed and food consumption calculated daily excluding weekends throughout the test period. Each animal received 800 grams of diet daily consisting of 400 grams of Wayne pellet dog food mixed with 400 ml distilled water. The animals received pyramiding oral doses of the test compound over the three week period. On Monday and Tuesday of the first week the animals were weighed and food consumption was recorded (control). The animals received 3 mg/kg on Wednesday and 10 mg/kg on Friday of the first week. Doses of 30, 100 and 300 mg/kg were administered on Monday, Wednesday and Friday respectively during the second week. A final dose of 1000 mg/kg was administered on Monday of the third week.
Food intake was determined by the procedure by pyramiding doses described in Example 26.

[7] = dietary admixture, 1.1 mmoles (250 mg)/kg/day
[8] = oral intubation, 1.0 mmoles (227 mg)/kg/day
[9] = 20% Corn Oil, 0.33 mmoles (75 mg)/kg oral
[10] = 20% Corn Oil, 0.66 mmoles (150 mg)/kg oral
[11] = 70% Glucose, 0.33 mmoles (75 mg)/kg oral
[12] = 70% Glucose, 0.66 mmoles (150 mg)/kg oral
[13] = Chow, 0.33 mmoles (75 mg)/kg oral
[14] = Chow, 0.66 mmoles (150 mg)/kg oral
[15] = G-70, 0.05 mmoles (114 mg)/kg oral (so in the source)
[16] = G-70, 0.25 mmoles (57 mg)/kg oral
[17] = G-70, 1.00 mmoles (227 mg)/kg oral
[18] = test day 20, no dose, (±) one animal, (+) and (-) two animals

## O=C(O)C[C@@](O)(C(=O)O)[C@@H](Cl)C(=O)O [(-)-threo-Chlorocitric acid, (-)-threo-chlorocitric acid]
[1]; [7]
  CBWG (cumulative body weight gain): -8 ± 6 g
  CFC (cumulative food consumption): 157 ± 9 g
  FBW (final body weight): 184 ± 8 g
[1]; [8]
  CBWG (cumulative body weight gain): -27 ± 4 g
  CFC (cumulative food consumption): 139 ± 6 g
  FBW (final body weight): 163 ± 5 g
[2]; [9]
  Food intake, 1st hr: 4.0 ± 0.6 g
  Food intake, 2nd hr: 1.6 ± 1.1 g
  Food intake, 3rd hr: 1.3 ± 0.5 g
  Food intake, Total: 6.8 ± 1.6 g
[2]; [10]
  Food intake, 1st hr: 3.6 ± 0.6 g
  Food intake, 2nd hr: 2.2 ± 0.4 g
  Food intake, 3rd hr: 1.3 ± 0.4 g
  Food intake, Total: 7.1 ± 0.9 g
[2]; [11]
  Food intake, 1st hr: 2.2 ± 0.5 g
  Food intake, 2nd hr: 2.2 ± 0.5 g
  Food intake, 3rd hr: 3.8 ± 0.4 g
  Food intake, Total: 8.2 ± 1.1 g
[2]; [12]
  Food intake, 1st hr: 2.7 ± 0.4 g
  Food intake, 2nd hr: 1.7 ± 0.3 g
  Food intake, 3rd hr: 2.3 ± 0.5 g
  Food intake, Total: 6.7 ± 0.7 g
[2]; [13]
  Food intake, 1st hr: 4.2 ± 1.4 g
  Food intake, 2nd hr: 1.6 ± 0.4 g
  Food intake, 3rd hr: 2.3 ± 0.7 g
  Food intake, Total: 8.1 ± 2.1 g
[2]; [14]
  Food intake, 1st hr: 3.6 ± 0.9 g
  Food intake, 2nd hr: 1.4 ± 0.2 g
  Food intake, 3rd hr: 1.9 ± 0.4 g
  Food intake, Total: 6.9 ± 1.2 g
[3]; [15]
  Carcass Lipid (% carcass), % of control: 82 % of control
  Carcass Lipid total, % of control: 67 % of control
  Carcass Lipid, % carcass: 4.43 ± 0.56 % carcass
  Carcass Lipid, total: 7.85 ± 1.03 g
  Carcass Weight: 177 ± 2 g
[3]; [16]
  Carcass Lipid (% carcass), % of control: 84 % of control
  Carcass Lipid total, % of control: 76 % of control
  Carcass Lipid, % carcass: 4.58 ± 0.09 % carcass
  Carcass Lipid, total: 8.98 ± 0.30 g
  Carcass Weight: 196 ± 4 g
[3]; [17]
  Carcass Lipid (% carcass), % of control: 64 % of control
  Carcass Lipid total, % of control: 50 % of control
  Carcass Lipid, % carcass: 3.48 ± 0.68 % carcass
  Carcass Lipid, total: 5.95 ± 1.28 g
  Carcass Weight: 169 ± 6 g
[4]
  metabolic activity on lipid (fatty acid) and cholesterol syntheses: devoid of metabolic activity as an inhibitor of lipid and cholesterol syntheses
[5]; Fa/- lean
  Body Weight Gain: -20.7 ± 2.2 g
[5]; fa/fa obese
  Body Weight Gain: -33.5 ± 3.1 g
[6]; [18]
  Food Consumption, % of control: 82 % of control
  Food consumption: 607 ± 193 g
[6]; test days -2, -1, before dosing (control period)
  Food consumption: 743 ± 54 g
